Like-named read-outs stand apart in the source and are kept apart here.
How the values were obtained:
[1] = tested on: Mycosphaerella graminicola; Anamorph: Septoria tritici; test: Leaf blotch of wheat (SEPTTR) disease control on wheat seedlings; type: in vivo; conditions: for pest or weed control at 100 ppm / pest or weed control at 121.5 g/ha: Zymoseptoria tritici; for pest or weed control at 121.5 g/ha: low volume application, 121.5 g/H; for pest or weed control at 100 ppm / SEPTTR 1DP disease control / SEPTTR 3DC disease control: 100 ppm
Summary of the method: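 Wheat seedlings (Yuma, first leaf emerged) sprayed to run-off with compound in acetone/water with 110 ppm Triton X-100, or track-sprayed as EC with 0.1% Trycol 5941. Septoria tritici spores inoculated before or after treatment. Dew chambers, then 20 °C greenhouse. Percent disease control derived from severity (0–100%) relative to untreated plants.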

[2] = tested on: Puccinia triticina; Synonym: Puccinia recondite f. sp. tritici; test: Wheat brown rust (PUCCRT) disease control on wheat seedlings; type: in vivo; conditions: for pest or weed control at 100 ppm / pest or weed control at 121.5 g/ha: Puccinia triticina; for pest or weed control at 121.5 g/ha: low volume application, 121.5 g/H; for pest or weed control at 100 ppm / PUCCRT 1DP disease control / PUCCRT 3DC disease control: 100 ppm
Summary of the method: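 Acetone solutions diluted in nine volumes of water with 110 ppm Triton X-100 sprayed to run-off on first-leaf Yuma wheat seedlings (track spray: EC with 0.1% Trycol 5941). Puccinia triticina spores inoculated before or after treatment; overnight dark dew at 22° C., 100% RH, then greenhouse at 24° C. for disease development.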

[3] = 24 h, High volume application, 1 Day Protectant, read-out: SEPTTR 1DP disease control
[4] = 72 h, High volume application, 3 Day Curative, read-out: SEPTTR 3DC disease control
[5] = 24 h, High volume application, 1 Day Protectant, read-out: PUCCRT 1DP disease control
[6] = 72 h, High volume application, 3 Day Curative, read-out: PUCCRT 3DC disease control
[7] = 24 h, Wheat Leaf Blotch, 1 Day Protectant, read-out: Disease Control SEPTTR 1 DP 121.5 g/H
[8] = 72 h, Wheat Leaf Blotch, 3 Day Curative, read-out: Disease Control SEPTTR 3 DC 121.5 g/H
[9] = 24 h, Wheat Brown Rust, 1 Day Protectant, read-out: Disease Control PUCCRT 1 DP 121.5 g/H
[10] = 72 h, Wheat Brown Rust, 3 Day Curative, read-out: Disease Control PUCCRT 3 DC 121.5 g/H
[11] = 24 h, Wheat Leaf Blotch, 1 Day Protectant, high volume application, read-out: Disease Control SEPTTR 1 DP 100 ppm
[12] = 72 h, Wheat Leaf Blotch, 3 Day Curative, high volume application, read-out: Disease Control SEPTTR 3 DC 100 ppm
[13] = 24 h, Wheat Brown Rust, 1 Day Protectant, high volume application, read-out: Disease Control PUCCRT 1 DP 100 ppm
[14] = 72 h, Wheat Brown Rust, 3 Day Curative, high volume application, read-out: Disease Control PUCCRT 3 DC 100 ppm
[15] = High volume application, 1 Day Protectant
[16] = High volume application, 3 Day Curative

Molecule	pest or weed control at 100 ppm [1, 3]	pest or weed control at 100 ppm [1, 4]	pest or weed control at 100 ppm [2, 5]	pest or weed control at 100 ppm [2, 6]	further results
CCCCCO[C@H]1[C@H](C)OC(=O)[C@@H](NC(=O)c2nccc(OC)c2OC(C)=O)CCC[C@@H]1Oc1ccccc1 [F103]	80 to 100%	80 to 100%	80 to 100%	80 to 100%	
COCCC(=O)Oc1c(OC)ccnc1C(=O)N[C@H]1CCC[C@H](OCC(C)C)[C@@H](OC)[C@H](C)OC1=O [F259]					pest or weed control at 121.5 g/ha [1, 7]: < 0%; pest or weed control at 121.5 g/ha [1, 8]: 80 to 100%; pest or weed control at 121.5 g/ha [2, 9]: 80 to 100%; pest or weed control at 121.5 g/ha [2, 10]: 80 to 100%
C=C(C)CO[C@H]1CCC[C@H](NC(=O)c2nccc(OC)c2O)C(=O)O[C@@H](C)[C@@H]1OC [F245]					pest or weed control at 100 ppm [1, 11]: 0 to 80%; pest or weed control at 100 ppm [1, 12]: 80 to 100%; pest or weed control at 100 ppm [2, 13]: 80 to 100%; pest or weed control at 100 ppm [2, 14]: 0 to 80%
COc1ccnc(C(=O)N[C@H]2CCC[C@H](OCC(C)C)[C@@H](OCCC(C)OC)[C@H](C)OC2=O)c1OCOC(C)=O (stereo partly shown) [F72]	80 to 100%	80 to 100%	80 to 100%	80 to 100%	
CCCCCO[C@H]1[C@H](C)OC(=O)[C@@H](NC(=O)c2nccc(OC)c2OCOC(=O)C(C)C)CCC[C@@H]1Oc1ccccc1 [F98]	80 to 100%	80 to 100%	80 to 100%	80 to 100%	
CCCO[C@H]1CCC[C@H](NC(=O)c2nccc(OC)c2O)C(=O)O[C@@H](C)[C@@H]1Oc1ccc(-c2ccccc2)cc1 [F283]					pest or weed control at 100 ppm [1, 11]: 80 to 100%; pest or weed control at 100 ppm [1, 12]: 0 to 80%; pest or weed control at 100 ppm [2, 13]: 80 to 100%; pest or weed control at 100 ppm [2, 14]: 0 to 80%
COc1ccnc(C(=O)N[C@H]2CCC[C@H](OC(=O)C3CCCC3)[C@@H](OC(=O)C3CCCC3)[C@H](C)OC2=O)c1O [F84]	0 to 80%	0 to 80%	0 to 80%	0 to 80%	
CCc1ccnc(C(=O)N[C@H]2CCC[C@H](OCC(C)C)[C@@H](OCCC(C)OC)[C@H](C)OC2=O)c1O (stereo partly shown) [F71]	0 to 80%	0 to 80%	0 to 80%	80 to 100%	
COc1ccnc(C(=O)N[C@H]2CCC[C@H](OCC(C)C)[C@@H](Oc3ccc(C)cc3)[C@H](C)OC2=O)c1OCOC(C)=O [F86]	80 to 100%	80 to 100%	80 to 100%	80 to 100%	
CCCO[C@H]1CCC[C@H](NC(=O)c2nccc(OC)c2O)C(=O)O[C@@H](C)[C@@H]1Oc1ccccc1 [F127]	80 to 100%	80 to 100%	80 to 100%	80 to 100%	
COc1ccnc(C(=O)N[C@H]2CCC[C@H](Oc3ccccc3)[C@@H](OCCCc3ccccc3)[C@H](C)OC2=O)c1O [F111]	0 to 80%	0 to 80%	80 to 100%	< 0%	
CCCO[C@H]1[C@H](C)OC(=O)[C@@H](NC(=O)c2nccc(OC)c2OC(C)=O)CCC[C@@H]1Oc1cccc(F)c1 [F284]					pest or weed control at 100 ppm [1, 11]: 80 to 100%; pest or weed control at 121.5 g/ha [1, 7]: 80 to 100%; pest or weed control at 100 ppm [1, 12]: 80 to 100%; pest or weed control at 121.5 g/ha [1, 8]: 80 to 100%; pest or weed control at 100 ppm [2, 13]: 80 to 100%; pest or weed control at 121.5 g/ha [2, 9]: 80 to 100%; pest or weed control at 100 ppm [2, 14]: 80 to 100%; pest or weed control at 121.5 g/ha [2, 10]: 80 to 100%
COCCC(=O)Oc1c(OC)ccnc1C(=O)N[C@H]1CCC[C@H](OCC(C)C)[C@@H](OCCCc2ccccc2)[C@H](C)OC1=O [F215]	80 to 100%	80 to 100%	80 to 100%	80 to 100%	
COc1ccnc(C(=O)N[C@H]2CCC[C@H](Oc3ccccc3)[C@@H](OCc3ccccc3)[C@H](C)OC2=O)c1OCOC(C)=O [F32]	80 to 100%	80 to 100%	80 to 100%	80 to 100%	
COc1ccnc(C(=O)N[C@H]2CCC[C@H](OCC(C)C)[C@@H](OC(=O)C3CCCC3)[C@H](C)OC2=O)c1O [F149]	80 to 100%	0 to 80%	80 to 100%	80 to 100%	
CCCO[C@H]1CCC[C@H](NC(=O)c2nccc(OC)c2O)C(=O)O[C@@H](C)[C@@H]1Oc1ccc(OC)cc1 [F270]					pest or weed control at 100 ppm [1, 11]: 80 to 100%; pest or weed control at 100 ppm [1, 12]: 0 to 80%; pest or weed control at 100 ppm [2, 13]: 80 to 100%; pest or weed control at 100 ppm [2, 14]: 80 to 100%
COc1ccnc(C(=O)N[C@H]2CCC[C@H](Oc3ccc(F)cc3)[C@@H](OC3CCCC3)[C@H](C)OC2=O)c1O [F160]	80 to 100%	80 to 100%	80 to 100%	80 to 100%	
COc1ccnc(C(=O)N[C@H]2CCC[C@H](OCC(C)C)[C@@H](OCCC(C)OC)[C@H](C)OC2=O)c1OC(C)=O (stereo partly shown) [F83]	80 to 100%	80 to 100%	80 to 100%	80 to 100%	
COc1ccnc(C(=O)N[C@H]2CCC[C@H](Oc3ccc(F)cc3)[C@@H](Oc3ccc(F)cc3)[C@H](C)OC2=O)c1OCOC(=O)C(C)C [F49]	80 to 100%	80 to 100%	80 to 100%	80 to 100%	
COc1ccc(O[C@H]2[C@H](C)OC(=O)[C@@H](NC(=O)c3nccc(OC)c3O)CCC[C@@H]2OCC(C)C)cc1 [F57]	80 to 100%	80 to 100%	80 to 100%	80 to 100%	
COc1ccnc(C(=O)N[C@H]2CCC[C@H](Oc3ccccc3)[C@@H](OC(=O)C3CCCC3)[C@H](C)OC2=O)c1OCOC(C)=O [F233]					pest or weed control at 100 ppm [1, 11]: 80 to 100%; pest or weed control at 121.5 g/ha [1, 7]: 80 to 100%; pest or weed control at 100 ppm [1, 12]: 80 to 100%; pest or weed control at 121.5 g/ha [1, 8]: 80 to 100%; pest or weed control at 100 ppm [2, 13]: 80 to 100%; pest or weed control at 121.5 g/ha [2, 9]: 80 to 100%; pest or weed control at 100 ppm [2, 14]: 80 to 100%; pest or weed control at 121.5 g/ha [2, 10]: 0 to 80%
[2-[[(3S,7S,8S,9S)-8-isobutoxy-9-methyl-7-(2-methylallyloxy)-2-oxo-oxonan-3-yl]carbamoyl]-4-methoxy-3-pyridyl]acetate [F18]					SEPTTR 1DP disease control [1, 15]: A (80-100); SEPTTR 3DC disease control [1, 16]: A (80-100); PUCCRT 1DP disease control [2, 15]: A (80-100); PUCCRT 3DC disease control [2, 16]: A (80-100)
COc1ccnc(C(=O)N[C@H]2CCC[C@H](OC3CCCCC3)[C@@H](OCC(C)C)[C@H](C)OC2=O)c1O [F211]	80 to 100%	80 to 100%	80 to 100%	80 to 100%	
COc1ccnc(C(=O)N[C@H]2CCC[C@H](OCCCC(F)(F)F)[C@@H](OCCCC(F)(F)F)[C@H](C)OC2=O)c1O [F85]	< 0%	0 to 80%	< 0%	0 to 80%	
COc1ccnc(C(=O)N[C@H]2CCC[C@H](OC3CCCC3)[C@@H](OC(=O)C3CC3)[C@H](C)OC2=O)c1OCOC(C)=O [F144]	80 to 100%	80 to 100%	80 to 100%	80 to 100%	
CCCO[C@H]1[C@H](C)OC(=O)[C@@H](NC(=O)c2nccc(OC)c2OCOC(C)=O)CCC[C@@H]1OC1CCCC1 [F121]	80 to 100%	80 to 100%	80 to 100%	80 to 100%	
COc1ccnc(C(=O)N[C@H]2CCC[C@H](OCC(C)C)[C@@H](OCCCc3ccccc3)[C@H](C)OC2=O)c1O [F40]	0 to 80%	0 to 80%	80 to 100%	80 to 100%	
COc1ccnc(C(=O)N[C@H]2CCC[C@H](OCC(C)C)[C@@H](OC3CCCC3)[C@H](C)OC2=O)c1O [F33]	0 to 80%	80 to 100%	80 to 100%	80 to 100%	
N-[(3S,7S,8S,9S)-7,8-dibenzyloxy-9-methyl-2-oxo-oxonan-3-yl]-3-hydroxy-4-methoxypyridine-2-carboxamide [F15]					SEPTTR 1DP disease control [1, 15]: A (80-100); SEPTTR 3DC disease control [1, 16]: A (80-100); PUCCRT 1DP disease control [2, 15]: A (80-100); PUCCRT 3DC disease control [2, 16]: A (80-100)

Source: US9681664B2, “Macrocyclic picolinamides as fungicides” (Dow Agrosciences LLC, priority 2012, dated 2017)
